Measurements taken from patent US20240373851A1, “PEST CONTROL COMPOSITION AND PEST CONTROL METHOD” (SUMITOMO CHEMICAL COMPANY, LIMITED, priority 2021, published 2024).

Assays:
Format in all cases: in vivo
[1] = tested on: German cockroaches (Blattella germanica); experiment: Test Example 6: control test against German cockroaches, spray in chamber; conditions: adult German cockroaches; 1.5 mL sprayed; concentration [%]: isocycloseram 0.05, imiprothrin 0.01, lambda-cyhalothrin 0.0025, alone or mixed; 60 minutes after spraying
Experimental: (§1) Next, the usefulness of the inventive composition for controlling pests will be indicated by Test Examples. In general, the control effect to be expected when treated with a mixture obtained by mixing given two or three types of active ingredient compounds is determined by the Colby's calculation equation represented by the following [Equation 1] and [Equation 2].
(§2) [formula] • P: moribund and mortal rates (%) when treated with an active ingredient compound X in the concentration of m [ppm] • Q: moribund and mortal rates (%) when treated with an active ingredient compound Y in the concentration of n [ppm] • EA: moribund and mortal rates (%) when treated with an active ingredient compound X in the concentration of m [ppm] and an active ingredient compound Y in the concentration of n [ppm] (hereinafter referred to as expected value A) […]
(§3) Regarding the synergistic effect of three types of the active ingredient compounds, in case where the moribund and mortal rates (%) when actually treated with a mixture obtained by mixing three types of the active ingredient compounds exceed the expected value A calculated by using the moribund and mortal rates (%) when actually treated with a mixture obtained by mixing two types of the active ingredient compounds among three types thereof, and the moribund and mortal rates (%) calculated when actually treated the remaining one type of the active ingredient compound, or the expected value B (%) calculated from the moribund and mortal rates (%) when actually treated with each of three types of the active ingredient compounds alone, it was determined that the synergistic effect exists. […]

[2] = tested on: German cockroaches (Blattella germanica); experiment: Test Example 9: control test against German cockroaches, spray in chamber; conditions: adult German cockroaches; 1.5 mL sprayed; concentration [%]: broflanilide 0.02, imiprothrin 0.01, permethrin 0.05, alone or mixed; 420 minutes after spraying
Description: (§4) Next, the usefulness of the inventive composition for controlling pests will be indicated by Test Examples.
(§5) (hereinafter referred to as expected value A)
(§6) (hereinafter referred to as expected value B)
(§7) In a plastic cup (diameter: 12.4 cm, height: 10.2 cm) lined with a filter paper, ten adult German cockroaches (Blattella germanica) (five males and five females each) were released, and the plastic cup was placed in the center of the bottom of a box-shaped chamber (46 cm×46 cm×70 cm in height). From the height of 60 cm, 1.5 mL of each of formulations prepared by dissolving a single agent of any one of broflanilide, imiprothrin and permethrin, or a mixed agent of two or more thereof in a mixture of isopropyl alcohol and Isopar M at a mixing ratio of 1:9 was sprayed under a spray pressure of 0.041 MPa. After a lapse of 420 minutes from spraying, the number of dead and moribund individuals was examined, and moribund and mortal rates (%) were determined by the above equation 3. The test was performed through two replicates. Dead individuals are completely immobile individuals, and moribund individuals are individuals who cannot get up when turned on their backs.

[3] = tested on: German cockroaches (Blattella germanica); experiment: Test Example 3: control test against German cockroaches, spray in chamber; conditions: adult German cockroaches; 1.5 mL sprayed; concentration [%]: broflanilide 0.02, imiprothrin 0.01, cyfluthrin 0.0016, alone or mixed; 420 minutes after spraying
Description: as §4, §5, §6
as §7, with “cyfluthrin,” for “permethrin,”

[4] = tested on: German cockroaches (Blattella germanica); experiment: Test Example 1: control test against German cockroaches, spray in chamber (cup without filter paper); conditions: adult German cockroaches; 1.5 mL sprayed; concentration [%]: broflanilide 0.01, imiprothrin 0.01, cypermethrin 0.01, alone or mixed; 120 minutes after spraying
Experimental: as §1, §2
Regarding the synergistic effect of three types of the active ingredient compounds, in case where the moribund and mortal rates (%) when actually treated with a mixture obtained by mixing three types of the active ingredient compounds exceed the expected value A calculated by using the moribund and mortal rates (%) when actually treated with a mixture obtained by mixing two types of the active ingredient compounds among three types thereof, and the moribund and mortal rates (%) calculated when actually treated the remaining one type of the active ingredient compound, or the expected value B (%) calculated from the moribund and mortal rates (%) when actually treated with each of three types of the active ingredient compounds alone, it was determined that the synergistic effect exists.
In a plastic cup (diameter: 12.4 cm, height: 10.2 cm), ten adult German cockroaches (Blattella germanica) (five males and five females each) were released, and the plastic cup was placed in the center of the bottom of a box-shaped chamber (46 cm×46 cm×70 cm in height). […] After a lapse of 120 minutes from spraying, the number of dead and moribund individuals was examined, and moribund and mortal rates (%) were determined by the equation 3 below. […]

[5] = tested on: German cockroaches (Blattella germanica); experiment: Test Example 5: control test against German cockroaches, spray in chamber; conditions: adult German cockroaches; 1.5 mL sprayed; concentration [%]: nicofluprole 0.01, imiprothrin 0.01, cyfluthrin 0.0002, alone or mixed; 45 minutes after spraying
Description: as §4, §5, §6
as §7, with “each) […]” for “each)”, “nicofluprole,” for “broflanilide,”, “cyfluthrin,” for “permethrin,”, “45” for “420”

[6] = tested on: German cockroaches (Blattella germanica); experiment: Test Example 7: control test against German cockroaches, spray in chamber; conditions: adult German cockroaches; 1.5 mL sprayed; concentration [%]: isocycloseram 0.05, imiprothrin 0.01, cypermethrin 0.01, alone or mixed; 120 minutes after spraying
Experimental: as §1, §2, §3

[7] = tested on: German cockroaches (Blattella germanica); experiment: Test Example 2: control test against German cockroaches, spray in chamber; conditions: adult German cockroaches; 1.5 mL sprayed; concentration [%]: nicofluprole 0.01, imiprothrin 0.01, cypermethrin 0.01, alone or mixed; 120 minutes after spraying
Experimental: as §1, §2, §3

[8] = tested on: German cockroaches (Blattella germanica); experiment: Test Example 4: control test against German cockroaches, spray in chamber; conditions: adult German cockroaches; 1.5 mL sprayed; concentration [%]: nicofluprole 0.01, imiprothrin 0.01, deltamethrin 0.0002, alone or mixed; 45 minutes after spraying
Experimental: as §1, §2, §3

[9] = tested on: German cockroaches (Blattella germanica); experiment: Test Example 8: control test against German cockroaches, spray in chamber; conditions: adult German cockroaches; 1.5 mL sprayed; concentration [%]: nicofluprole 0.01, imiprothrin 0.01, phenothrin 0.1, alone or mixed; 45 minutes after spraying
Experimental: as §1, §2, §3

Question: `CC1(C)[C@H](C(=O)O[C@H](C#N)c2cccc(Oc3ccccc3)c2)[C@@H]1/C=C(\Cl)C(F)(F)F` (racemic) [Lambda-cyhalothrin, lambda-cyhalothrin] was tested. Which “Moribund and mortal rates [%] after 60 minutes” value [1] did it give?
Answer: 45%

Question: How did the “Moribund and mortal rates [%] after 420 minutes” value [2] turn out when `CN(C(=O)c1ccccc1)c1cccc(C(=O)Nc2c(Br)cc(C(F)(C(F)(F)F)C(F)(F)F)cc2C(F)(F)F)c1F` [Broflanilide, broflanilide] was run?
Answer: 70%

Question: What about the “Moribund and mortal rates [%] after 420 minutes” value [3] of the same compound?
Answer: 70%

Question: What about the “Moribund and mortal rates [%] after 120 minutes” value [4] of the same compound?
Answer: 5%

Question: `CC1(C)C(C=C(Cl)Cl)C1C(=O)OC(C#N)c1ccc(F)c(Oc2ccccc2)c1` (centres unmarked) [Cyfluthrin, cyfluthrin] was tested. Which “Moribund and mortal rates [%] after 420 minutes” value [3] did it give?
Answer: 0%

Question: What about the “Moribund and mortal rates [%] after 45 minutes” value [5] of the same compound?
Answer: 0%

Question: Which “Moribund and mortal rates [%] after 120 minutes” value [6] does the source give for `CC1(C)C(C=C(Cl)Cl)C1C(=O)OC(C#N)c1cccc(Oc2ccccc2)c1` (centres unmarked) [Cypermethrin, cypermethrin] here?
Answer: 50%

Question: What about the “Moribund and mortal rates [%] after 120 minutes” value [7] of the same compound?
Answer: 15%

Question: What about the “Moribund and mortal rates [%] after 120 minutes” value [4] of the same compound?
Answer: 45%

Question: With `CC1(C)[C@H](C(=O)O[C@H](C#N)c2cccc(Oc3ccccc3)c2)[C@@H]1C=C(Br)Br` [Deltamethrin, deltamethrin] as the compound, how does the “Moribund and mortal rates [%] after 45 minutes” value [8] read?
Answer: 0%

Question: `CC(C)=CC1C(C(=O)OCc2cccc(Oc3ccccc3)c2)C1(C)C` (centres unmarked) [Phenothrin, phenothrin] was tested. Which “Moribund and mortal rates [%] after 45 minutes” value [9] did it give?
Answer: 5%
